# Source: patent US20260159511A1, “SMALL MOLECULE STING ANTAGONISTS” (CURADEV PHARMA PVT. LTD., priority 2021, published 2026)
# System: IRF pathway in THP1-Dual™ cells, THP-1 (HAQ)
# Experiment: Reporter gene expression assay in THP-1 cells (THP1-Dual, IRF pathway Lucia luciferase reporter, 2′,3′-cGAMP stimulation)
# Format: cell-based, human
# Conditions: Homo sapiens; THP1-Dual cells preincubated with compound 10 minutes, stimulation with 5 μM 2′,3′-cGAMP for 20 hr, QUANTI-Luc readout of the supernatant; read-out: THP-1 (HAQ) Activity (IC50 value range)
# Method in brief: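 THP-1-derived THP1-Dual cells (5×10^4) preincubated with compound for 10 minutes, then stimulated with 5 μM 2′,3′-cGAMP. After 20 hr, secreted Lucia luciferase (IRF pathway reporter) measured in supernatant by luminescence.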
row,IC50,SMILES
1,< 1 µM,"CN1C(=O)CSc2ccc(NC(=O)Nc3c[nH]c4ccccc34)cc21 [Example 16, 1-(1H-indol-3-yl)-3-(4-methyl-3-oxo-3,4-dihydro-2H-benzo[b][1,4]thiazin-6-yl)urea]"
2,< 1 µM,"CC1CN(Cc2ccccc2)c2cc(NC(=O)Nc3c[nH]c4ccccc34)ccc2S1 (stereo not shown) [Example 83, 1-(4-benzyl-2-methyl-3,4-dihydro-2H-benzo[b][1,4]thiazin-6-yl)-3-(1H-indol-3-yl)urea]"
3,< 1 µM,"O=C(Nc1ccc2c(c1)N(Cc1ccccc1)CCS2)Nc1c[nH]c2ccc(F)cc12 [Example 99, 1-(4-benzyl-3,4-dihydro-2H-benzo[b][1,4]thiazin-6-yl)-3-(5-fluoro-1H-indol-3-yl)urea]"
4,< 1 µM,"O=C(Nc1ccc2c(c1)N(Cc1ccccc1)C(=O)CS2)Nc1c[nH]c2ccc(-c3cncc(Cl)c3)cc12 [Example 57, 1-(4-benzyl-3-oxo-3,4-dihydro-2H-benzo[b][1,4]thiazin-6-yl)-3-(5-(5-chloropyridin-3-yl)-1H-indol-3-yl)urea]"
5,< 1 µM,"CC1CN(Cc2cc(F)cc(F)c2)c2cc(NC(=O)Nc3c[nH]c4ccc(F)cc34)ccc2S1 (stereo not shown) [Example 69, 1-(4-(3,5-Difluorobenzyl)-2-methyl-3,4-dihydro-2H-benzo[b][1,4]thiazin-6-yl)-3-(5-fluoro-1H-indol-3-yl)urea]"
6,< 1 µM,"O=C(Nc1ccc2c(c1)N(C(=O)c1ccccc1)CCS2)Nc1c[nH]c2ccccc12 [Example 79, 1-(4-benzoyl-3,4-dihydro-2H-benzo[b][1,4]thiazin-6-yl)-3-(1H-indol-3-yl)urea]"

# The next lines start with the compound.
row,SMILES,IC50
1,"O=C1Cc2ccc(-c3ccc4[nH]cc(NC(=O)Nc5ccc6c(c5)N(Cc5ccccc5)C(=O)CS6)c4c3)cc2N1 [Example 62, 1-(4-benzyl-3-oxo-3,4-dihydro-2H-benzo[b][1,4]thiazin-6-yl)-3-(5-(2-oxoindolin-6-yl)-1H-indol-3-yl)urea]",< 1 µM
2,"Cc1cccc(F)c1CN1CCSc2cc(NC(=O)Nc3c[nH]c4ccccc34)ccc21 [Example 82, 1-(4-(2-fluoro-6-methylbenzyl)-3,4-dihydro-2H-benzo[b][1,4]thiazin-7-yl)-3-(1H-indol-3-yl)urea]",< 1 µM
3,"O=C(Nc1ccc2c(c1)N(Cc1ccccc1)C(=O)CS2)Nc1c[nH]c2ccc(-c3cncs3)cc12 [Example 64, 1-(4-benzyl-3-oxo-3,4-dihydro-2H-benzo[b][1,4]thiazin-6-yl)-3-(5-(thiazol-5-yl)-1H-indol-3-yl)urea]",< 1 µM
4,"Cc1cc(CN2CCSc3ccc(NC(=O)Nc4c[nH]c5ccc(F)cc45)cc32)on1 [Example 110, 1-(5-fluoro-1H-indol-3-yl)-3-(4-((3-methylisoxazol-5-yl)methyl)-3,4-dihydro-2H-benzo[b][1,4]thiazin-6-yl)urea]",< 1 µM
5,"CC1Sc2ccc(NC(=O)Nc3c[nH]c4ccccc34)cc2N(Cc2c(F)cccc2Cl)C1=O (stereo not shown) [Example 27, 1-(4-(2-chloro-6-fluorobenzyl)-2-methyl-3-oxo-3,4-dihydro-2H-benzo[b][1,4]thiazin-6-yl)-3-(1H-indol-3-yl)urea]",< 1 µM
6,"O=C(Nc1ccc2c(c1)N(Cc1ccccc1)C(=O)CS2)Nc1c[nH]c2ccc(-c3ccncc3)cc12 [Example 51, 1-(4-benzyl-3-oxo-3,4-dihydro-2H-benzo[b][1,4]thiazin-6-yl)-3-(5-(pyridin-4-yl)-1H-indol-3-yl)urea]",< 1 µM
7,"NC(=O)c1ccccc1CN1CCSc2cc(NC(=O)Nc3c[nH]c4ccccc34)ccc21 [Example 95, 2-((7-(3-(1H-indol-3-yl)ureido)-2,3-dihydro-4H-benzo[b][1,4]thiazin-4-yl)methyl)benzamide]",< 1 µM
8,"N#CCCn1cc(-c2ccc3[nH]cc(NC(=O)Nc4ccc5c(c4)N(Cc4ccccc4)C(=O)CS5)c3c2)cn1 [Example 52, 1-(4-benzyl-3-oxo-3,4-dihydro-2H-benzo[b][1,4]thiazin-6-yl)-3-(5-(1-(2-cyanoethyl)-1H-pyrazol-4-yl)-1H-indol-3-yl)urea]",1 to 10 µM
9,"O=C(Nc1ccc2c(c1)N(Cc1ccccc1)C(=O)CS2)Nc1c[nH]c2ccc(-c3cn[nH]c3)cc12 [Example 44, 1-(5-(1H-pyrazol-4-yl)-1H-indol-3-yl)-3-(4-benzyl-3-oxo-3,4-dihydro-2H-benzo[b][1,4]thiazin-6-yl)urea]",1 to 10 µM
10,"CC(C)n1cc(-c2ccc3[nH]cc(NC(=O)Nc4ccc5c(c4)N(Cc4ccccc4)C(=O)CS5)c3c2)cn1 [Example 59, 1-(4-benzyl-3-oxo-3,4-dihydro-2H-benzo[b][1,4]thiazin-6-yl)-3-(5-(1-isopropyl-1H-pyrazol-4-yl)-1H-indol-3-yl)urea]",< 1 µM
11,"O=C(Nc1ccc2c(c1)N(Cc1ccccc1)C(=O)CS2)Nc1c[nH]c2ccc(Cl)cc12 [Example 10, 1-(4-benzyl-3-oxo-3,4-dihydro-2H-benzo[b][1,4]thiazin-6-yl)-3-(5-chloro-1H-indol-3-yl)urea]",< 1 µM
12,"CN1CCSc2ccc(NC(=O)Nc3c[nH]c4ccccc34)cc21 [Example 78, 1-(1H-indol-3-yl)-3-(4-methyl-3,4-dihydro-2H-benzo[b][1,4]thiazin-6-yl)urea]",< 1 µM
13,"CC1CN(Cc2cc(F)cc(Cl)c2)c2cc(NC(=O)Nc3c[nH]c4ccc(F)cc34)ccc2S1 (stereo not shown) [Example 111, 1-(4-(3-chloro-5-fluorobenzyl)-2-methyl-3,4-dihydro-2H-benzo[b][1,4]thiazin-6-yl)-3-(5-fluoro-1H-indol-3-yl)urea]",< 1 µM
